Experimental data reported in patent US10501479B2, “Benzenesulfonyl-asymmetric ureas and medical uses thereof” (HELSINN HEALTHCARE SA, priority 2016, dated 2019).
Where “and” joins values, the source holds several entries; their conditions need not be identical. Equal values may be shown once.

How the values were obtained:
[1] = Metabolic stability in rat liver microsomes; assay type: in vitro ADME
In short: (§1)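 Depletion of test compound in NADPH-fortified liver microsomes (pH 7.4 phosphate buffer, 37 °C) is followed over 90 min. Remaining compound in quenched samples is quantified by LC-MS/MS against the time-zero level.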

[2] = Plasma protein binding (PPB), mouse; assay type: in vitro ADME
[3] = biological target: T1, recombinant human ghrelin receptor (HEK293/GRLN) (Homo sapiens, UniProt Q92847); experiment: Ghrelin inverse agonist potency (EC50) with IP-1 (IP-One HTRF) assay; assay type: cell-based; details: inverse agonist potency, IP-1 assay; read-out: EC50 (Activity)
T1 construct: expressed in transfected cells
T1 sequence (Q92847 whole entry): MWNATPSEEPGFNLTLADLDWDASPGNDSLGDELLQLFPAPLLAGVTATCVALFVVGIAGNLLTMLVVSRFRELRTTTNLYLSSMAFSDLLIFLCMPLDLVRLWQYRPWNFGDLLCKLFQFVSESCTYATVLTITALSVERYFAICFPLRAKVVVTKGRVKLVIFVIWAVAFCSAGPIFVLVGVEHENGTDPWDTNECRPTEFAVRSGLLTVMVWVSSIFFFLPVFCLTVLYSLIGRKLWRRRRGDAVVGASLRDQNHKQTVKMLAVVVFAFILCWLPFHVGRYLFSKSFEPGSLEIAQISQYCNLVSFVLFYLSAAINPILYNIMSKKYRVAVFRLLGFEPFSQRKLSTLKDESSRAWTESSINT
In short: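 HEK293/GRLN cells were seeded 18-22 hours before the test, then exposed to compound in stimulation buffer for 1 hour at 37° C, 5% CO2. IP-1 was detected by IP-One HTRF (IP1-d2 plus Tb-cryptate, 1 hour RT), reading 620 and 665 nm; the inverse agonist EC50 was derived from this.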

[4] = Animal PK study in mouse via i.v., p.o. and s.c. administration; assay type: in vivo; details: for PK CLiv / PK Vdiv / PK t1/2iv: i.v.; for PK CLpo / PK Vdpo / PK t1/2po: p.o.
In short: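 Single i.v. (tail vein), s.c. (neck scruff) or p.o. (gavage) dose to mice or rats; oral vehicle 1–5% DMSO/0.5% methylcellulose, i.v./s.c. vehicle 1–5% DMSO in 20% HP-β-cyclodextrin. Plasma sampled 0.083 (i.v./s.c.) or 0.25 to 24 h, analyzed by LC-MS/MS.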

[5] = Plasma protein binding (PPB), dog; assay type: in vitro ADME; details: read-out: PPB (D) (converted)
[6] = Plasma protein binding (PPB), human; assay type: in vitro ADME; details: read-out: PPB (H)
[7] = Plasma protein binding (PPB), rat; assay type: in vitro ADME; details: read-out: PPB (R) (converted)
[8] = Metabolic stability in mouse liver microsomes; assay type: in vitro ADME
In short: as §1

[9] = Metabolic stability in dog liver microsomes; assay type: in vitro ADME
In short: as §1

[10] = biological target: T2, GHSR-1a (HEK293/GHSR1a cell line) (Homo sapiens, UniProt Q92847); experiment: Ghrelin antagonist potency (IC50) with calcium FLIPR assay, ghrelin 10 nM; assay type: cell-based; details: ghrelin antagonist potency, read-out: IC50 (Activity)
T2 construct: expressed in transfected cells; host or cells: HEK293/GHSR1a cell line
T2 sequence (Q92847 whole entry): as above
In short: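 Potency values were estimated from dose-response curves of relative fluorescence, with calcium followed for 2 minutes after additions at t=20 sec. Agonism was tested with compound alone. Antagonism was tested with compound plus 10 nM ghrelin and scored as a reduction of the ghrelin signal.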

hERG = hERG (Homo sapiens, UniProt Q12809); experiment: hERG inhibition
Sequence of hERG (Q12809 whole entry): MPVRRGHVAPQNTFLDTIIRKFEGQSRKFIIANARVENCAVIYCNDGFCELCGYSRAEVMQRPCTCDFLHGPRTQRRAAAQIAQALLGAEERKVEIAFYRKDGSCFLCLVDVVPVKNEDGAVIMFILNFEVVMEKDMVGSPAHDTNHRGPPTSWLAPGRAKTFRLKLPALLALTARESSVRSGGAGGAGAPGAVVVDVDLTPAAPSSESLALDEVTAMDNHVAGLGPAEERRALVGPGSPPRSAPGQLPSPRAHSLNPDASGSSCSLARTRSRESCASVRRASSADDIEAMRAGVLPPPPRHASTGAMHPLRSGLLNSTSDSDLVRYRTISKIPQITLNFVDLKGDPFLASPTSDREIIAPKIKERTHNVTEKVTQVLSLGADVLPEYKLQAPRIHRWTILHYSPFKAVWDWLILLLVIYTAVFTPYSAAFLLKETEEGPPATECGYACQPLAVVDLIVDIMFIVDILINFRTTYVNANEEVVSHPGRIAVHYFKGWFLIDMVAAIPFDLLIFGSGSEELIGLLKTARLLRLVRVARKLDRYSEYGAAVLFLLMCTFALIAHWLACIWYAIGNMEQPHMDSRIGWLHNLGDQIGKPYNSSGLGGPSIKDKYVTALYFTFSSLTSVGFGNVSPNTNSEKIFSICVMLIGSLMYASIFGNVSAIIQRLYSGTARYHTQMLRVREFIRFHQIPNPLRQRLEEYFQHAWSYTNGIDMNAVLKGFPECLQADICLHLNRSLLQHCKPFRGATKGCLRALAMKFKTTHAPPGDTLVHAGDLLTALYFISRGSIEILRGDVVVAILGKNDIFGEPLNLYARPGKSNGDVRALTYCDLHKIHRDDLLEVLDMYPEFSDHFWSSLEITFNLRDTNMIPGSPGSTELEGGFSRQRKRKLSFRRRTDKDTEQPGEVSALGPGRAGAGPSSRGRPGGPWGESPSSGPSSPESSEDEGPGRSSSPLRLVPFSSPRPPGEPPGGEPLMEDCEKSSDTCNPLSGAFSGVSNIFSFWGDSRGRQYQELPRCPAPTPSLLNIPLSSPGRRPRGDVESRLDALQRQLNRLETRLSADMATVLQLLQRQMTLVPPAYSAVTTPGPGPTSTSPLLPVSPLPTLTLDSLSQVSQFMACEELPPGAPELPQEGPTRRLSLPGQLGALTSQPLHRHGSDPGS

[11] = Metabolic stability in human liver microsomes; assay type: in vitro ADME
In short: as §1

[12] = Animal PK study in rat via i.v., p.o. and s.c. administration; assay type: in vivo; details: rat
[13] = Animal PK study in dog (i.v., p.o.); assay type: in vivo; details: for PK CLiv / PK Vdiv / PK t1/2iv: i.v.; for PK CLpo / PK Vdpo / PK t1/2po: p.o.

Structure (SMILES) | Metabolic Stability Study R = rat [1] | fraction unbound [2] | EC50 [3] | PK F [4] | PK CLiv [4] | PK Vdiv [4] | PK t1/2iv [4] | PK CLpo [4] | PK Vdpo [4] | PK t1/2po [4] | fraction unbound [6] | fraction unbound [7] | Metabolic Stability Study M = mouse [8] | Metabolic Stability Study D = dog [9] | IC50 [10] | hERG inh (hERG) | Metabolic Stability Study H = human [11] | PK Vdiv ([12]; i.v.) | PK t1/2iv ([12]; i.v.) | PK F [13] | also measured
C[C@H](NC(=O)Nc1ccc(S(=O)(=O)Cc2ccc3c(c2)CCN(C)C3)cc1)c1cccc(Cl)c1Cl [H1071, (S)-1-(1-(2,3-dichlorophenyl)ethyl)-3-(4-(((2-methyl-1,2,3,4-tetrahydroisoquinolin-6-yl)methyl)sulfonyl)phenyl)urea] | 274 µL/min/mg and 188 µL/min/mg | 0.0098 | 1.7 nM | 19.9% | 28.5 mL/min/kg | 2.83 L/kg | 1.15 h | 138 mL/min/kg | 21.1 L/kg | 1.77 h | 0.0089 | 0.0087 | 80.7 µL/min/mg and 152.5 µL/min/mg | 172.6 µL/min/mg and 160.7 µL/min/mg | 5 nM |  |  |  |  |  | fraction unbound [5]: 0.0082
CC(c1ccc2c(c1)CCNC2)S(=O)(=O)c1ccc(NC(=O)N[C@@H](C)c2cccc(Cl)c2Cl)cc1.Cl (stereo partly drawn) [H1080, 1-((S)-1-(2,3-dichlorophenyl)ethyl)-3-(4-((1-(1,2,3,4-tetrahydroisoquinolin-6-yl)ethyl)sulfonyl)phenyl)urea] |  |  | 11.1 nM |  |  |  |  |  |  |  |  |  | H < 10 M < 10 R = not reported D = not reported μL/min/mg |  | 22.6 nM | 3.57 µM | H < 10 M < 10 R = not reported D = not reported μL/min/mg |  |  |  | 
CC(NC(=O)Nc1ccc(S(=O)(=O)Cc2ccc3c(c2)CNC3)cc1)c1ccccc1.Cl (stereo not shown) [H1148, 1-(4-((isoindolin-5-ylmethyl)sulfonyl)phenyl)-3-(1-phenylethyl)urea] |  | 0.077 | 2.9 nM and 3.13 nM |  |  |  | 1.37 h and 2.13 h | 1610 mL/min/kg and 2742 mL/min/kg |  |  | 0.088 | 0.055 | 21.1 µL/min/mg |  | 10 nM | 12.52 µM | 22.2 µL/min/mg | 104.5 (R); L/Kg | 0.51 (R); h | 15.7 (D) % | PK CLiv [13]: 12 mL/min/kg; PK Vdiv [13]: 2.34 (D) L/Kg; PK t1/2iv [13]: 2.32 (D) h; PK CLpo [13]: 80.3 mL/min/kg; PK Vdpo [13]: (M); 14.74 (D) L/Kg; PK t1/2po [13]: 2.34 (D) h
CC(NC(=O)Nc1ccc(S(=O)(=O)Cc2ccc3c(c2)CN(C)C3)cc1)c1ccccc1 (stereo not shown) [H1194, 1-(4-(((2-methylisoindolin-5-yl)methyl)sulfonyl)phenyl)-3-(1-phenylethyl)urea] | 56 µL/min/mg | 0.06 | 16.8 nM | 15.56 (M); % | 60.2 mL/min/kg | 6.33 L/kg | 1.21 (M); h | 380 mL/min/kg | 53.3 (M); L/Kg | 1.62 (M); h | 0.076 |  | 64.2 µL/min/mg | 14 µL/min/mg | 38.3 nM | 22.6 µM | 111.6 µL/min/mg | 8.86 (R); L/Kg | 1.08 (R); h | 54.07 (D) % | PK F [12]: 11.9 (R); %; PK CLiv ([12]; i.v.): 94.7 mL/min/kg; PK CLpo ([12]; p.o.): 848 mL/min/kg; PK Vdpo ([12]; p.o.): 232.2 (R); L/Kg; PK t1/2po ([12]; p.o.): 4.54 (R); h; PK CLiv [13]: 16.7 mL/min/kg; PK Vdiv [13]: 2.11 (D) L/Kg; PK t1/2iv [13]: 1.44 (D) h; PK CLpo [13]: 30.7 mL/min/kg; PK Vdpo [13]: 4.05 (D) L/Kg; PK t1/2po [13]: 1.5 (D) h
